# According to patent US7182954B1, “Prebiotic oligosaccharides via alternansucrase acceptor reactions” (priority 2003, dated 2007):
# Key:
# [1] = tested on: Bifidobacterium infantis 15697; test: Oligosaccharide utilization (growth) by colonic bacteria; assay type: cell-based; settings: 0.5% oligosaccharide preparation, anaerobic, 5 days, 37° C
# [2] = tested on: Bifidobacterium adolescentis 15705; test: as above; assay type: cell-based; settings: 0.5% oligosaccharide preparation, anaerobic, 5 days, 37° C
# [3] = tested on: alternansucrase; test: Comparison of acceptor strengths with alternansucrase, relative amount of alternan formed; settings: for Alternan (Rel. %): 45 μL 10% (w/v) sucrose, 45 μL 10% (w/v) acceptor, 10 μL alternansucrase, pH 5.4, room temperature, less alternan = stronger acceptor; for acceptor strength for alternansucrase, in words: text summary of Table I
# [4] = tested on: Bifidobacterium catenulatum 27539; test: Oligosaccharide utilization (growth) by colonic bacteria; assay type: cell-based; settings: 0.5% oligosaccharide preparation, anaerobic, 5 days, 37° C
# [5] = tested on: Bifidobacterium bifidum 29521; test: as above; assay type: cell-based; settings: 0.5% oligosaccharide preparation, anaerobic, 5 days, 37° C
# [6] = tested on: Bifidobacterium breve 15698; test: as above; assay type: cell-based; settings: 0.5% oligosaccharide preparation, anaerobic, 5 days, 37° C
# [7] = tested on: Lactobacillus casei 393; test: as above; assay type: cell-based; settings: 0.5% oligosaccharide preparation, anaerobic, 5 days, 37° C
# [8] = tested on: Bifidobacterium pseudocatenulatum 27919; test: as above; assay type: cell-based; settings: 0.5% oligosaccharide preparation, anaerobic, 5 days, 37° C
# [9] = tested on: Bifidobacterium ruminantium 4939; test: as above; assay type: cell-based; settings: 0.5% oligosaccharide preparation, anaerobic, 5 days, 37° C
# [10] = tested on: Lactobacillus acidophilus 4356; test: as above; assay type: cell-based; settings: 0.5% oligosaccharide preparation, anaerobic, 5 days, 37° C
# [11] = tested on: Salmonella typhimurium 14028; test: as above; assay type: cell-based, Salmonella choleraesuis (typhimurium); settings: 0.5% oligosaccharide preparation, anaerobic, 5 days, 37° C
# [12] = tested on: Escherchia coli 8739; test: as above; assay type: cell-based, Escherichia coli; settings: 0.5% oligosaccharide preparation, anaerobic, 5 days, 37° C
# [13] = tested on: Lactobacillus GG 53103; test: as above; assay type: cell-based, Lactobacillus rhamnosus GG; settings: 0.5% oligosaccharide preparation, anaerobic, 5 days, 37° C
# [14] = tested on: Bifidobacterium adolescentis 15706; test: as above; assay type: cell-based; settings: 0.5% oligosaccharide preparation, anaerobic, 5 days, 37° C
# [15] = tested on: Bifidobacterium boum 27917; test: as above; assay type: cell-based; settings: 0.5% oligosaccharide preparation, anaerobic, 5 days, 37° C
# [16] = tested on: Bacteroides thetaiotaomicron 29148; assay type: cell-based; settings: 0.5% oligosaccharide preparation, anaerobic, 5 days, 37° C
# [17] = tested on: Bifidobacterium longum 15707; test: Oligosaccharide utilization (growth) by colonic bacteria; assay type: cell-based; settings: 0.5% oligosaccharide preparation, anaerobic, 5 days, 37° C
# [18] = tested on: Enterobacter aerogenes 35028; test: as above; assay type: cell-based; settings: 0.5% oligosaccharide preparation, anaerobic, 5 days, 37° C
# [19] = tested on: Bifidobacterium gallicum 49850; test: as above; assay type: cell-based; settings: 0.5% oligosaccharide preparation, anaerobic, 5 days, 37° C
# [20] = tested on: Clostridium perfringens 13124; assay type: cell-based; settings: 0.5% oligosaccharide preparation, anaerobic, 5 days, 37° C
# [21] = tested on: Bifidobacterium adolescentis 15703; test: Oligosaccharide utilization (growth) by colonic bacteria; assay type: cell-based; settings: 0.5% oligosaccharide preparation, anaerobic, 5 days, 37° C
# [22] = tested on: Bifidobacterium thermophilum 25866; test: as above; assay type: cell-based; settings: 0.5% oligosaccharide preparation, anaerobic, 5 days, 37° C
# [23] = tested on: Bifidobacterium adolescentis 15704; test: as above; assay type: cell-based; settings: 0.5% oligosaccharide preparation, anaerobic, 5 days, 37° C
compound,measurement,setting,value
O=C[C@H](O)[C@@H](O)[C@H](O)[C@H](O)CO [D-glucose],"Growth (OD600 nm), Bifidobacterium infantis 15697",[1],"+++ (OD600 nm ≧ 0.60, high growth)"
same,"Growth (OD600 nm), Bifidobacterium adolescentis 15705",[2],"+++ (OD600 nm ≧ 0.60, high growth)"
same,Alternan (Rel. %),[3],53 Rel. %
same,"Growth (OD600 nm), Bifidobacterium catenulatum 27539",[4],"+++ (OD600 nm ≧ 0.60, high growth)"
same,"Growth (OD600 nm), Bifidobacterium bifidum 29521",[5],"+++ (OD600 nm ≧ 0.60, high growth)"
same,"Growth (OD600 nm), Bifidobacterium breve 15698",[6],"+++ (OD600 nm ≧ 0.60, high growth)"
same,"Growth (OD600 nm), Lactobacillus casei 393",[7],"+++ (OD600 nm ≧ 0.60, high growth)"
same,"Growth (OD600 nm), Bifidobacterium pseudocatenulatum 27919",[8],"+++ (OD600 nm ≧ 0.60, high growth)"
same,"Growth (OD600 nm), Bifidobacterium ruminantium 4939",[9],"+++ (OD600 nm ≧ 0.60, high growth)"
same,"Growth (OD600 nm), Lactobacillus acidophilus 4356",[10],"+++ (OD600 nm ≧ 0.60, high growth)"
same,"Growth (OD600 nm), Salmonella typhimurium 14028",[11],"++ (OD600 nm 0.31–0.59, medium growth)"
same,"Growth (OD600 nm), Escherchia coli 8739",[12],"+++ (OD600 nm ≧ 0.60, high growth)"
same,"Growth (OD600 nm), Lactobacillus GG 53103",[13],"+++ (OD600 nm ≧ 0.60, high growth)"
same,"Growth (OD600 nm), Bifidobacterium adolescentis 15706",[14],"+++ (OD600 nm ≧ 0.60, high growth)"
same,"Growth (OD600 nm), Bifidobacterium boum 27917",[15],"+++ (OD600 nm ≧ 0.60, high growth)"
same,"Growth (OD600 nm), Bacteroides thetaiotaomicron 29148",[16],"++ (OD600 nm 0.31–0.59, medium growth)"
same,"Growth (OD600 nm), Bifidobacterium longum 15707",[17],"+++ (OD600 nm ≧ 0.60, high growth)"
same,"Growth (OD600 nm), Enterobacter aerogenes 35028",[18],"+++ (OD600 nm ≧ 0.60, high growth)"
same,"Growth (OD600 nm), Bifidobacterium gallicum 49850",[19],"+++ (OD600 nm ≧ 0.60, high growth)"
same,"Growth (OD600 nm), Clostridium perfringens 13124",[20],"+++ (OD600 nm ≧ 0.60, high growth)"
same,"Growth (OD600 nm), Bifidobacterium adolescentis 15703",[21],"+++ (OD600 nm ≧ 0.60, high growth)"
same,"Growth (OD600 nm), Bifidobacterium thermophilum 25866",[22],"+++ (OD600 nm ≧ 0.60, high growth)"
same,"Growth (OD600 nm), Bifidobacterium adolescentis 15704",[23],"+++ (OD600 nm ≧ 0.60, high growth)"
OC[C@H]1O[C@H](OC[C@H]2O[C@H](O[C@]3(CO)O[C@H](CO)[C@@H](O)[C@@H]3O)[C@H](O)[C@@H](O)[C@@H]2O)[C@H](O)[C@@H](O)[C@H]1O [raffinose],Alternan (Rel. %),[3],67 Rel. %
same,"acceptor strength for alternansucrase, in words",[3],relatively good acceptors
OC[C@H]1O[C@H](OC[C@H]2O[C@H](OC[C@H]3O[C@H](O[C@H]4[C@H](O)[C@@H](O)C(O)O[C@@H]4CO)[C@H](O)[C@@H](O)[C@@H]3O)[C@H](O)[C@@H](O)[C@@H]2O)[C@H](O)[C@@H](O)[C@@H]1O (stereo partly drawn) [6″-O-α-D-Glc panose],Alternan (Rel. %),[3],36 Rel. %
OC[C@H]1O[C@@H](O[C@@H]2[C@@H](CO)OC(O)(CO)[C@H]2O)[C@H](O)[C@@H](O)[C@H]1O (mixture of isomers) [lactulose],Alternan (Rel. %),[3],91 Rel. %
"CO[C@H]1O[C@H](CO)[C@@H](O)[C@H](O)[C@@H]1O [α-methyl-D-mannoside, α-methyl-D-mannopyranoside]",Alternan (Rel. %),[3],70 Rel. %
OC[C@H]1O[C@@](CO)(O[C@H]2O[C@H](CO)[C@@H](O)[C@H](O)[C@H]2O)[C@@H](O[C@H]2O[C@H](CO)[C@@H](O)[C@H](O)[C@H]2O)[C@@H]1O [melezitose],Alternan (Rel. %),[3],90 Rel. %
O=C[C@H](O)[C@H](O)[C@H](O)CO [D-ribose],Alternan (Rel. %),[3],93 Rel. %
O=C[C@H](O)[C@H](O)[C@H](O)[C@H](O)CO [D-allose],Alternan (Rel. %),[3],75 Rel. %
OC[C@H]1O[C@H](OC[C@H]2O[C@H](OC[C@H]3OC(O)[C@H](O)[C@@H](O)[C@@H]3O)[C@H](O)[C@@H](O)[C@@H]2O)[C@H](O)[C@@H](O)[C@@H]1O (some centres unmarked) [isomaltotriose],Alternan (Rel. %),[3],50 Rel. %
maltotriose,Alternan (Rel. %),[3],65 Rel. %
O=C(CO)[C@@H](O[C@H]1O[C@H](CO)[C@@H](O)[C@H](O)[C@H]1O)[C@H](O)[C@H](O)CO [turanose],Alternan (Rel. %),[3],57 Rel. %
OC[C@H]1O[C@@H](O[C@H]2C(O)O[C@H](CO)[C@@H](O)[C@@H]2O)[C@H](O)[C@@H](O)[C@@H]1O (some centres unmarked) [sophorose],Alternan (Rel. %),[3],80 Rel. %
OC[C@H]1O[C@H](O[C@H]2[C@H](O)[C@@H](O)[C@H](O)O[C@@H]2CO)[C@H](O)[C@@H](O)[C@@H]1O [maltose],Alternan (Rel. %),[3],11 Rel. %
same,"acceptor strength for alternansucrase, in words",[3],excellent acceptor
OC[C@H]1O[C@H](OC[C@H]2OC(O)(CO)[C@@H](O)[C@@H]2O)[C@H](O)[C@@H](O)[C@@H]1O (some centres unmarked) [palatinose],Alternan (Rel. %),[3],69 Rel. %
